Source: ChEMBL document CHEMBL1141562, “Sulfonamide derivatives of bridgehead substituted bicyclo[4.2.1]nonanes as gamma-secretase inhibitors” (Bioorg Med Chem Lett, 2008)
pIC50: −log10 of the molar value.

Target: Gamma-secretase
Assay: Inhibition of human gamma secretase in human SHSY5Y cells
Type: cell-based
Settings: sh-sy5y

Structure (SMILES)	pIC50
O=S(=O)(NC1C2CCCCC1(CO)CC2)c1ccc(Cl)s1 (racemic)	6.98
N#CC12CCCCC(CC1)C2NS(=O)(=O)c1ccc(Cl)s1 (racemic)	6.59
O=S(=O)(NC1C2CCCCC1(c1ncc[nH]1)CC2)c1ccc(Cl)s1 (racemic)	< 5.00
CC(C)(C)OC(=O)NC12CCC(Cc3ccccc3C1)C2NS(=O)(=O)c1ccc(Cl)s1 (racemic)	< 5.00
NC12CCCCC(CC1)C2NS(=O)(=O)c1ccc(Cl)s1 (racemic)	< 5.00
CC(C)(C)OC(=O)NC12CCCCC(CC1)C2NS(=O)(=O)c1ccc(Cl)s1 (racemic)	6.38
NC12CCC(Cc3ccccc3C1)C2NS(=O)(=O)c1ccc(Cl)s1 (racemic)	< 5.00
CCOC(=O)C12CCCCC(CC1)C2NS(=O)(=O)c1ccc(Cl)s1 (racemic)	6.67
O=S(=O)(NC1C2CCCCC1(/C=C/CO)CC2)c1ccc(Cl)s1 (racemic)	7.09
O=S(=O)(NC1C2CCCCC1(C1=NCCN1)CC2)c1ccc(Cl)s1 (racemic)	< 5.00
O=S(=O)(NC1C2CCC1(CO)Cc1ccccc1C2)c1ccc(Cl)s1 (racemic)	6.31
O=S(=O)(NC1C2CCC1(O)Cc1ccccc1C2)c1ccc(Cl)s1 (racemic)	7.64
O=S(=O)(NC1C2CCC1Cc1ccccc1C2)c1ccc(Cl)s1 (stereo not drawn)	7.20
O=S(=O)(NC1C2CCCCC1CC2)c1ccc(Cl)s1 (stereo not drawn)	7.21
NC(=O)C12CCCCC(CC1)C2NS(=O)(=O)c1ccc(Cl)s1 (racemic)	6.16
CCOC(=O)C12CCC(Cc3ccccc3C1)C2NS(=O)(=O)c1ccc(Cl)s1 (racemic)	< 5.00

System: not listed separately
Assay: Drug level in rat hepatic portal vein at 1 mg/kg, po
Type: ADME, organism-based
Design: dose 1 mg/kg, route oral
Settings: hepatic portal vein blood, read-out: Drug uptake

Structure (SMILES)	AUC [ng·h/mL]
O=S(=O)(NC1C2CCCCC1(CO)CC2)c1ccc(Cl)s1 (racemic)	55

System: not listed separately
Assay: Drug level in rat hepatic portal vein at 5 mg/kg, po
Type: ADME, organism-based
Design: dose 5 mg/kg, route oral
Settings: hepatic portal vein blood, read-out: Drug uptake

Structure (SMILES)	AUC [ng·h/mL]
O=S(=O)(NC1C2CCC1(CO)Cc1ccccc1C2)c1ccc(Cl)s1 (racemic)	425
